Results reported in PubChem BioAssay AID250 (DTP/NCI, 2004).
Several values for one entry are separate records, joined by “and”; a condition that tells them apart may be missing. Equal values may be shown once. Inconclusive results and toxic doses are left out.

Test system: BDF1 mice, L1210 leukemia sc, survival T/C
Test: NCI In Vivo Anticancer Drug Screen. Data for tumor model L1210 Leukemia (subcutaneous) in B6D2F1 (BDF1) mice
Settings: higher = longer survival
Outline: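 Mice carrying transplanted tumors received test compounds, and survival or tumor size was measured. Values are the treated-group measurement (T) divided by that of the vehicle-treated control group (C).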

In the case of `O=C1CN=C(c2ccc[nH]2)c2cc(Cl)ccc2N1`, the T/C (endpoint: median survival time, dose: 2.5 mg/kg/injection, schedule: Q01DX009 (ip), vehicle: clinical formulation) is reported as 100 % of control, the T/C (endpoint: median survival time, dose: 2.5 mg/kg/injection, schedule: Q01DX009 (sc), vehicle: clinical formulation) is reported as 88 % of control and the T/C (endpoint: median survival time, dose: 5.0 mg/kg/injection, schedule: Q01DX009 (ip), vehicle: clinical formulation) is reported as 100 % of control. For the same compound, the T/C (endpoint: median survival time, dose: 5.0 mg/kg/injection, schedule: Q01DX009 (sc), vehicle: clinical formulation) was 88 % of control, the T/C (endpoint: median survival time, dose: 10.0 mg/kg/injection, schedule: Q01DX009 (ip), vehicle: clinical formulation) was 88 % of control and the T/C (endpoint: median survival time, dose: 10.0 mg/kg/injection, schedule: Q01DX009 (sc), vehicle: clinical formulation) was 88 % of control. The T/C (endpoint: median survival time, dose: 12.5 mg/kg/injection, schedule: Q01DX009 (ip), vehicle: Klucel (hydroxypropylcellulose) (HPC)) was 100 % of control, the T/C (endpoint: median survival time, dose: 12.5 mg/kg/injection, schedule: Q01DX009 (sc), vehicle: Klucel (hydroxypropylcellulose) (HPC)) was 94 % of control and the T/C (endpoint: median survival time, dose: 20.0 mg/kg/injection, schedule: Q01DX009 (ip), vehicle: clinical formulation) was 100 % of control. For the same compound, the T/C (endpoint: median survival time, dose: 20.0 mg/kg/injection, schedule: Q01DX009 (sc), vehicle: clinical formulation) was 88 % of control, the T/C (endpoint: median survival time, dose: 25.0 mg/kg/injection, schedule: Q01DX009 (ip), vehicle: Klucel (hydroxypropylcellulose) (HPC)) was 88 % of control and the T/C (endpoint: median survival time, dose: 25.0 mg/kg/injection, schedule: Q01DX009 (sc), vehicle: Klucel (hydroxypropylcellulose) (HPC)) was 100 % of control. For the same compound, the T/C (endpoint: median survival time, dose: 40.0 mg/kg/injection, schedule: Q01DX009 (ip), vehicle: clinical formulation) was 100 % of control, the T/C (endpoint: median survival time, dose: 40.0 mg/kg/injection, schedule: Q01DX009 (sc), vehicle: clinical formulation) was 88 % of control and the T/C (endpoint: median survival time, dose: 50.0 mg/kg/injection, schedule: Q01DX009 (ip), vehicle: Klucel (hydroxypropylcellulose) (HPC)) was 100 % of control. For the same compound, the T/C (endpoint: median survival time, dose: 50.0 mg/kg/injection, schedule: Q01DX009 (ip), vehicle: steriod suspending solution) was 111 % of control, the T/C (endpoint: median survival time, dose: 50.0 mg/kg/injection, schedule: Q01DX009 (sc), vehicle: Klucel (hydroxypropylcellulose) (HPC)) was 100 % of control and the T/C (endpoint: median survival time, dose: 50.0 mg/kg/injection, schedule: Q01DX009 (sc), vehicle: steriod suspending solution) was 100 % of control. The T/C (endpoint: median survival time, dose: 80.0 mg/kg/injection, schedule: Q01DX009 (ip), vehicle: clinical formulation) was 88 % of control, the T/C (endpoint: median survival time, dose: 80.0 mg/kg/injection, schedule: Q01DX009 (ip), vehicle: other) was 100 % of control and the T/C (endpoint: median survival time, dose: 80.0 mg/kg/injection, schedule: Q01DX009 (sc), vehicle: clinical formulation) was 100 % of control. For the same compound, the T/C (endpoint: median survival time, dose: 100.0 mg/kg/injection, schedule: Q01DX009 (ip), vehicle: Klucel (hydroxypropylcellulose) (HPC)) was 155 % of control, the T/C (endpoint: median survival time, dose: 100.0 mg/kg/injection, schedule: Q01DX009 (ip), vehicle: steriod suspending solution) was 111 % of control and the T/C (endpoint: median survival time, dose: 100.0 mg/kg/injection, schedule: Q01DX009 (sc), vehicle: Klucel (hydroxypropylcellulose) (HPC)) was 111 % of control. For the same compound, the T/C (endpoint: median survival time, dose: 100.0 mg/kg/injection, schedule: Q01DX009 (sc), vehicle: steriod suspending solution) was 100 % of control, the T/C (endpoint: median survival time, dose: 100.0 mg/kg/injection, schedule: Q08DX009 (sc), vehicle: Klucel (hydroxypropylcellulose) (HPC)) was 100 % of control and 101 % of control and the T/C (endpoint: median survival time, dose: 200.0 mg/kg/injection, schedule: Q01DX009 (ip), vehicle: steriod suspending solution) was 111 % of control. The T/C (endpoint: median survival time, dose: 200.0 mg/kg/injection, schedule: Q01DX009 (sc), vehicle: Klucel (hydroxypropylcellulose) (HPC)) was 172 % of control, the T/C (endpoint: median survival time, dose: 200.0 mg/kg/injection, schedule: Q01DX009 (sc), vehicle: steriod suspending solution) was 105 % of control and the T/C (endpoint: median survival time, dose: 200.0 mg/kg/injection, schedule: Q08DX009 (sc), vehicle: Klucel (hydroxypropylcellulose) (HPC)) was 105 % of control. The T/C (endpoint: median survival time, dose: 400.0 mg/kg/injection, schedule: Q01DX009 (ip), vehicle: steriod suspending solution) was 150 % of control, the T/C (endpoint: median survival time, dose: 400.0 mg/kg/injection, schedule: Q01DX009 (sc), vehicle: Klucel (hydroxypropylcellulose) (HPC)) was 183 % of control and the T/C (endpoint: median survival time, dose: 400.0 mg/kg/injection, schedule: Q01DX009 (sc), vehicle: steriod suspending solution) was 166 % of control. For the same compound, the T/C (endpoint: median survival time, dose: 400.0 mg/kg/injection, schedule: Q08DX009 (sc), vehicle: Klucel (hydroxypropylcellulose) (HPC)) was 98 % of control and 100 % of control, the T/C (endpoint: median survival time, dose: 800.0 mg/kg/injection, schedule: Q01DX009 (sc), vehicle: steriod suspending solution) was 166 % of control and the T/C (endpoint: median survival time, dose: 2313.0 mg/kg/injection, schedule: Q01DX009 (sc), vehicle: Klucel (hydroxypropylcellulose) (HPC)) was 88 % of control and 93 % of control. For the same compound, the T/C (endpoint: median survival time, dose: 3855.0 mg/kg/injection, schedule: Q01DX009 (sc), vehicle: Klucel (hydroxypropylcellulose) (HPC)) was 87 % of control.

For `Cc1cccc2c(Nc3ccc(NS(C)(=O)=O)cc3)c3ccccc3nc12`, the T/C (endpoint: mean survival time, dose: 10.0 mg/kg/injection, schedule: Q01DX009 (ip), vehicle: saline) was 103 % of control, the T/C (endpoint: mean survival time, dose: 20.0 mg/kg/injection, schedule: Q01DX009 (ip), vehicle: saline) was 107 % of control and the T/C (endpoint: mean survival time, dose: 40.0 mg/kg/injection, schedule: Q01DX009 (ip), vehicle: saline) was 106 % of control. The T/C (endpoint: mean survival time, dose: 80.0 mg/kg/injection, schedule: Q01DX009 (ip), vehicle: saline) was 100 % of control, the T/C (endpoint: median survival time, dose: 10.0 mg/kg/injection, schedule: Q01DX009 (ip), vehicle: saline with Tween-80) was 106 % of control and the T/C (endpoint: median survival time, dose: 20.0 mg/kg/injection, schedule: Q01DX009 (ip), vehicle: saline with Tween-80) was 112 % of control.
